The values that follow come from patent US9309222B2, “Phenyl linked quinolinyl modulators of RORγt” (Janssen Pharmaceutica NV, priority 2012, dated 2016).

The target of assay [1] is T1, human RORγt ligand binding domain (RORγt LBD) (Homo sapiens, UniProt P51449).
T1 construct: His-tag (N); TurboTEV protease cleavage site (ENLYFQG) (N); made in house; host or cells: E. coli (pHIS1, modified pET vector)
T1 sequence (P51449 with tags, fused parts or gaps): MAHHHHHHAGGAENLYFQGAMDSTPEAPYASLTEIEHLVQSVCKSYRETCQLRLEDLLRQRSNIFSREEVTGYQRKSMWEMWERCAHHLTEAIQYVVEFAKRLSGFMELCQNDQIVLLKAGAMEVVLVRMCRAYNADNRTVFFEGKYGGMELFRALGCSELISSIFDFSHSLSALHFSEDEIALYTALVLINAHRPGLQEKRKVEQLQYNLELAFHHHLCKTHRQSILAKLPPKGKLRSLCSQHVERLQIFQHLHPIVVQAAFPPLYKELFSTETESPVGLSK
Briefly: RORγt ThermoFluor assay (thermal shift, ligand binding affinity). The following applies: estimated from concentration response of thermal shift. An outline of the steps:
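Thermal shift of 0.065 mg/mL RORγt with 60 μM 1,8-ANS in 100 mM Hepes pH 7.0, 10 mM NaCl, 2.5 mM GSH, 0.002% Tween-20. Compounds in 1:2 series from 10 mM DMSO stock. Dye fluorescence (500 nm emission) tracked versus temperature; ΔTm used to derive KD.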

Assay [2] relates to IL-17 production by CD4 T cells. Briefly: Human Th17 assay (IL-17 production by CD4 T cells under Th17 differentiation conditions). It is filed as cell-based. The following applies: Homo sapiens, CD4+ T, 72 h, IL-17 in supernatant after 3 days. An outline of the steps:
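Primary CD4+ T cells from healthy-donor PBMC, preincubated 1 h with titrated compound (0.2% DMSO), then activated with anti-CD3/CD28 beads plus anti-IL4, anti-IFNγ, IL1β, IL23, IL6, TGFβ and IL2.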

The target in a further assay is T2, human RORγt LBD (Homo sapiens, UniProt P51449).
T2 construct: expressed in transfected cells
T2 sequence (P51449 258-518): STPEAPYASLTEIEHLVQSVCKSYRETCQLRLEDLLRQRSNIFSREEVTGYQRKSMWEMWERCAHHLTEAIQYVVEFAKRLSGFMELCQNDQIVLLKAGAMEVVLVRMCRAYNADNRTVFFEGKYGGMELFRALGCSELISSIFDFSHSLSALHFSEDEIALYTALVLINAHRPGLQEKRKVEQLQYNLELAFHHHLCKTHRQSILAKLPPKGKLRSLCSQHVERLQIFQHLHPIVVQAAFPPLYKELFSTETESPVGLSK
Briefly: RORγt reporter assay (GAL4-RORγt LBD luciferase in HEK293T cells). Type of assay: cell-based. The note with it: for IC50: HEK293T cells, 24 hours compound treatment; for inhibition at 6 µM: HEK-293T, read-out: RORγt reporter Assay, % inhibition @ 6 μM, HEK293T cells, 6 μM compound. An outline of the steps: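 Read-out is the firefly-to-renilla luciferase ratio versus compound concentration, after 24 h compound exposure of cells in phenol-red-free DMEM/5% lipid-reduced FCS. Cells were HEK293T bulk-transfected with a GAL4-responsive firefly reporter (pGL4.31) and GAL4 DBD–wild-type human RORγt LBD fusion (pBIND, renilla as transfection/viability control).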
(In general: A reporter such as luciferase makes a cellular process visible.)

Molecules are shown by their SMILES. Counter-ions that a name gives are not always drawn.

Usually Kd stands for the concentration at which binding is half-saturated. As a reminder, the IC50 is the concentration needed to halve the response being measured. Low values mean inhibition by little substance, high ones a need for much substance. One may read the inhibition as the relative decrease from the control value, in per cent. For the molecule `N#Cc1ccc(C(O)(c2cccc(Cl)c2)c2ccc3nc(C#N)c(-c4ccccc4)c(C#N)c3c2)cn1` (centres unmarked) [Example 104, 6-[(3-Chlorophenyl)(6-cyanopyridin-3-yl)hydroxymethyl]-3-phenylquinoline-2,4-dicarbonitrile•TFA], the Kd in assay [1] was 0.03 µM. The half-inhibitory concentration (IC50) in assay [2] amounted to 0.043 µM. On human RORγt LBD, the 50% inhibitory concentration (IC50) amounted to 0.039 µM and the inhibition at 6 µM stood at 100%.
Consider `CCN(CC)c1nc2ccc(C(O)(c3ccncc3)c3cncn3C)cc2c(OC)c1-c1ccccc1` (centres unmarked) [Example 105, [2-(Diethylamino)-4-methoxy-3-phenylquinolin-6-yl](1-methyl-1H-imidazol-5-yl)pyridin-4-ylmethanol•TFA], for which the Kd in assay [1] is 0.039 µM. Further, the results for the IC50 (in assay [2]; against human RORγt LBD) were 0.19 µM and 0.15 µM, respectively. On human RORγt LBD, the inhibition at 6 µM worked out at 101%.
Take `COc1c(-c2ccccc2)c(N(C)C)nc2ccc(C(O)(c3ccncc3)c3cncn3C)cc12` (centres unmarked) [Example 107, [2-(Dimethylamino)-4-methoxy-3-phenylquinolin-6-yl](1-methyl-1H-imidazol-5-yl)pyridin-4-ylmethanol•TFA]: the dissociation constant Kd in assay [1] is 0.065 µM. Further, the IC50 in assay [2] came to 0.039 µM; against human RORγt LBD, 0.059 µM. The inhibition at 6 µM on human RORγt LBD is 101%.
Consider `N#Cc1nc2ccc(C(O)(c3ccc(C(N)=O)nc3)c3cccc(Cl)c3)cc2c(C#N)c1-c1ccccc1` (centres unmarked) [Example 112, 5-[(3-Chlorophenyl)(2,4-dicyano-3-phenylquinolin-6-yl)hydroxymethyl]pyridine-2-carboxamide•TFA], for which, in assay [1], the equilibrium dissociation constant (Kd) was 0.12 µM. The molecule further had an IC50 in assay [2] of 0.48 µM. Moreover, at human RORγt LBD, half-maximal inhibition (IC50) was put at 0.38 µM and the inhibition at 6 µM is 100%.
With `CCN(CC)c1nc2ccc(C(O)(c3cccnc3)c3cccc(Cl)c3)cc2c(C#N)c1-c1ccccc1` (centres unmarked) [Example 113, 6-[(3-Chlorophenyl)(hydroxy)pyridin-3-ylmethyl]-2-(diethylamino)-3-phenylquinoline-4-carbonitrile•TFA], the dissociation constant (Kd) in assay [1] was 1.8 µM. In assay [2], the IC50 worked out at 0.25 µM. Besides, at human RORγt LBD, the 50% inhibitory concentration (IC50) was 0.086 µM and the inhibition at 6 µM amounted to 101%.
For `Cn1cncc1C(O)(c1cncnc1)c1ccc2nc(Cl)c(-c3ccccc3)c(Cl)c2c1` (centres unmarked) [Example 120, (2,4-Dichloro-3-phenylquinolin-6-yl)(1-methyl-1H-imidazol-5-yl)(pyrimidin-5-yl)methanol] the same measures were 0.13 µM, 0.4 µM, 0.17 µM and 98%.
Take `Cn1cncc1C(O)(c1ccc2nc(Cl)c(-c3ccccc3)c(Cl)c2c1)c1cnccn1` (centres unmarked) [Example 122, (2,4-Dichloro-3-phenylquinolin-6-yl)(1-methyl-1H-imidazol-5-yl)(pyrazin-2-yl)methanol]: the dissociation constant (Kd) in assay [1] was 0.25 µM. Further, the midpoint of inhibition in assay [2], the IC50, lay at 0.5 µM. On human RORγt LBD, the IC50 came out at 0.47 µM and the inhibition at 6 µM turned out to be 91%.
For `OC(c1ccc(Cl)cc1)(c1cncnc1)c1ccc2nc(Cl)c(-c3ccccc3)c(Cl)c2c1` (centres unmarked) [Example 124, (4-Chlorophenyl)(2,4-dichloro-3-phenylquinolin-6-yl)(pyrimidin-5-yl)methanol] the same measures were 0.12 µM, 0.92 µM, 0.22 µM and 100%.
For `COC(c1ccncc1)(c1ccc2nc(N(C)C)c(-c3ccccc3)c(Cl)c2c1)c1cncn1C` (centres unmarked) [Example 128, 4-Chloro-6-(methoxy(1-methyl-1H-imidazol-5-yl)(pyridin-4-yl)methyl)-N,N-dimethyl-3-phenylquinolin-2-amine•TFA] the same measures were 0.097 µM, 0.24 µM, 0.14 µM and 98%.
The like results for `COc1ccc(C(O)(c2ccc3nc(Cl)c(-c4ccccc4)c(Cl)c3c2)c2c(C)noc2C)cn1` (centres unmarked) [Example 129, (2,4-Dichloro-3-phenylquinolin-6-yl)(3,5-dimethylisoxazol-4-yl)(6-methoxypyridin-3-yl)methanol•TFA] were, in that order, 0.0062 µM, 0.08 µM, 0.16 µM and 100%.
`COc1ccc(C(O)(c2ccc3nc(Cl)c(-c4ccccc4)c(Cl)c3c2)c2cc(C)no2)cn1` (centres unmarked) [Example 131, (2,4-Dichloro-3-phenylquinolin-6-yl)(6-methoxypyridin-3-yl)(3-methylisoxazol-5-yl)methanol•TFA]: in assay [1], the Kd was 0.026 µM. Besides, the 50% inhibitory concentration (IC50) in assay [2] turned out to be 0.21 µM. Further, at human RORγt LBD, the IC50 stood at 0.091 µM and the inhibition at 6 µM came to 100%.
For `Cc1cc(C(O)(c2ccc3nc(Cl)c(-c4ccccc4)c(Cl)c3c2)c2cncn2C)on1` (centres unmarked) [Example 132, (2,4-Dichloro-3-phenylquinolin-6-yl)(1-methyl-1H-imidazol-5-yl)(3-methylisoxazol-5-yl)methanol•TFA] the same measures were 0.016 µM, 0.13 µM, 0.048 µM and 103%.
The like results for `Cc1cc(C(O)(c2ccc(Cl)cc2)c2ccc3nc(N(C)C)c(-c4ccccc4)c(Cl)c3c2)on1` (centres unmarked) [Example 134, (4-Chloro-2-(dimethylamino)-3-phenylquinolin-6-yl)(4-chlorophenyl)(3-methylisoxazol-5-yl)methanol •TFA] were, in that order, 0.29 µM, 1.1 µM, 0.52 µM and 96%.
The like results for `Cc1ncc(C(O)(c2ccc(Cl)cc2)c2ccc3nc(C#N)c(-c4ccccc4)c(Cl)c3c2)n1C` (centres unmarked) [Example 139, 4-Chloro-6-((4-chlorophenyl)(1,2-dimethyl-1H-imidazol-5-yl)(hydroxy)methyl)-3-phenylquinoline-2-carbonitrile•TFA] were, in that order, 0.061 µM, 0.35 µM, 0.31 µM and 102%.
In the case of `Cc1nc(C(O)(c2ccc3nc(Cl)c(-c4ccccc4)c(Cl)c3c2)c2cncn2C)cs1` (centres unmarked) [Example 140, (2,4-Dichloro-3-phenylquinolin-6-yl)(1-methyl-1H-imidazol-5-yl)(2-methylthiazol-4-yl)methanol], the dissociation constant Kd in assay [1] is 0.56 µM. In assay [2], this molecule gave a concentration for half-maximal inhibition (IC50) of 1.8 µM. In addition, at human RORγt LBD, 0.32 µM corresponded to half-maximal inhibition (IC50) and the inhibition at 6 µM came to 105%.
The like results for `Cn1c(C(O)(c2ccc(Cl)cc2)c2ccc3nc(Cl)c(-c4ccccc4)c(Cl)c3c2)cnc1Cl` (centres unmarked) [Example 141, (2-Chloro-1-methyl-1H-imidazol-5-yl)(4-chlorophenyl)(2,4-dichloro-3-phenylquinolin-6-yl)methanol] were, in that order, 0.62 µM, 1.2 µM, 0.21 µM and 99%.
`Cc1ccc(C(O)(c2ccc3nc(Cl)c(-c4ccccc4)c(Cl)c3c2)c2cncn2C)c(C)n1` (centres unmarked) [Example 142, (2,4-Dichloro-3-phenylquinolin-6-yl)(2,6-dimethylpyridin-3-yl)(1-methyl-1H-imidazol-5-yl)methanol]: in assay [1], the Kd is 0.0076 µM. In assay [2], this molecule showed an IC50 of 0.14 µM. Also, on human RORγt LBD, 0.092 µM corresponded to half-maximal inhibition (IC50) and the inhibition at 6 µM worked out at 105%.
